Consider 18 compounds from US10913972B2, “5,5-disubstituted luciferins and their use in luciferase-based assays” (Promega Corporation, priority 2016, dated 2021).

The subject of series [1] is UltraGlo luciferase. In words: RLU of 5,5-disubstituted luciferin analogs normalized to racemic luciferins (Table 1). Format: biochemical. To be noted: normalized to 1 mM racemic luciferins under identical conditions. How it is done:
Further tests were conducted at various substrate concentrations in the presence of sub-saturating D-Luciferin as a means to compare the binding affinity of the substrates. Solutions of 0.005 mg/ml Click Beetle-Green luciferase (CBG) or UltraGlo luciferase were prepared in Bright-Glo™ assay buffer (Promega E263A) with 3 mM ATP. A 2 mM solution of each substrate was then prepared in water containing D-Luciferin (sub-saturating). Each substrate+D-Luciferin was two-fold serially diluted in luciferin free water. A sample of 50 μL of each substrate dilution was combined with 50 μL of the enzyme solution. Samples were incubated at room temperature for one minute, and luminescence was measured on a GLOMAX® Multi+ plate luminometer. […] (FIG. 5A-F). RLU values for certain representative compounds (normalized to racemic luciferins under identical conditions) are provided in Table 1 above. For certain representatative compounds, substrate titration tests were performed using procedures as described herein without comparison to luciferins, therefore providing RLU values not normalized to those of luciferins.
(§1) To determine if luciferin analogs with substitutions at the 5,5 position could be substrates for UltraGlo™ luciferase, tests were performed with analogs containing various di-substitutions of alkyl groups and closed ring structures in luminescence assays. A solution of 0.005 mg/ml UltraGlo™ luciferase (Promega Corp) prepared in 1×TBS+1% Prionex was combined with 0.5 mM ATP in Bright-Glo™ assay buffer (Promega E263A). All substrates were diluted separately in DMSO to 20 mM. After a 30-minute incubation at room temperature, diluted substrate was added to 1 mM final concentration in the reaction and mixed by pipetting. Reactions were further incubated at room temperature for 1 minute, and luminescence measured on a GLOMAX® Multi+ plate luminometer.

Series [2] has as its system UltraGlo™ luciferase. As to the kind of experiment: Luminescence assay of 5,5-substituted analogs as substrates for UltraGlo™ luciferase (FIG. 7). Format: biochemical. To be noted: 1 mM substrate, 0.005 mg/ml enzyme, 0.5 mM ATP, 1 minute at room temperature. How it is done: as §1
For series [3], the system named is ULTRA-GLO™ luciferase. As to the kind of experiment: Inhibition of luciferase activity by dehydroluciferins. The series is classed as biochemical. The conditions noted are these: titrated from 0.25 mM in 0.25 mM racemic luciferin, 0.1 mM ATP, 1 minute. Here is the method:
Inhibition of luciferase activity by dehydroluciferins: ULTRA-GLO™ luciferase (Promega, 0.1 mg/mL)+0.1% PRIONEX® in detection reagent buffer was prepared. The solution was divided into 2 portions with 0.25 mM Racemic H-Luciferin added to one portion and 0.25 mM racemic NH2 luciferin to the other portion. H-dehydroluciferin (0.25 mM) was added to an aliquot of the racemic H-Luciferin solution, and NH2-dehydroluciferin (0.25 mM) was added to an aliquot of the racemic NH2 luciferin solution. 2× serial dilutions of each of the dehydroluciferin samples were prepared using the racemic solutions as a diluent (500 μL of dehydroluciferin solution added to 500 μL of ULTRA-GLO™+racemic luciferin). 50 μL of each titration series was then added to […] 0.1 mM ATP. The samples were incubated for 1 minute, and the luminescence was measured on GLOMAX®-Multi+ plate luminometer (n=6).

The nature of series [4]: Thermal stability of luciferin stock solutions at 60° C. by RP-HPLC. The conditions noted are these: stock solution pH=6.0, 7.0 mM; for Thermal stability (decomposition in solution): detergents, ULTRA-GLO luciferase 0.1 mg/mL.
Series [5] has as its system firefly or click beetle luciferases. To be noted: Branchini et al., J. Am. Chem. Soc. 2002; cited from earlier work.
Series [6] relates to recombinant beetle luciferases. The conditions noted are these: only the D-form; Viviani et al., Biochemistry 2014; cited from earlier work.

“Also recorded” adds a separate entry of the source.

As to `O=C(O)C1N=C(c2nc3ccc(O)cc3s2)SC12CCCCC2` (stereo not drawn) [CS0325, 2-(6-hydroxybenzo[d]thiazol-2-yl)-1-thia-3-azaspiro[4.5]dec-2-ene-4-carboxylic acid], the “RLU% (RLU normalized to the one generated by 1 mM racemic luciferins under identical conditions)” value in series [1] was determined as 0.22%.

Consider `O=C(O)C1N=C(c2nc3ccc(O)cc3s2)SC12CCCC2` (stereo not drawn) [CS0326, 2-(6-hydroxybenzo[d]thiazol-2-yl)-1-thia-3-azaspiro[4.4]non-2-ene-4-carboxylic acid], for which the “RLU% (RLU normalized to the one generated by 1 mM racemic luciferins under identical conditions)” value in series [1] is 0.43%.

On to `O=C(O)C1N=C(c2nc3ccc(O)cc3s2)SC12CCC2` (stereo not drawn) [CS0329, 6-(6-hydroxybenzo[d]thiazol-2-yl)-5-thia-7-azaspiro[3.4]oct-6-ene-8-carboxylic acid], for which the “RLU% (RLU normalized to the one generated by 1 mM racemic luciferins under identical conditions)” value in series [1] is recorded as 0.29%.

As for `CCC1(CC)SC(c2nc3ccc(O)cc3s2)=NC1C(=O)O` (stereo not drawn) [CS0330, 5,5-diethyl-2-(6-hydroxybenzo[d]thiazol-2-yl)-4,5-dihydrothiazole-4-carboxylic acid], the “RLU% (RLU normalized to the one generated by 1 mM racemic luciferins under identical conditions)” value in series [1] amounted to 0.60%.

With `O=C(O)C1N=C(c2nc3ccc(O)cc3s2)SC12CC2` (stereo not drawn) [CS0333, 5-(6-hydroxybenzo[d]thiazol-2-yl)-4-thia-6-azaspiro[2.4]hept-5-ene-7-carboxylic acid], the “RLU% (RLU normalized to the one generated by 1 mM racemic luciferins under identical conditions)” value in series [1] came to 0.27%.

In the case of `CCC1(CC)SC(c2nc3cc(F)c(O)cc3s2)=NC1C(=O)O` (stereo not drawn) [CS0388, 5,5-diethyl-2-(5-fluoro-6-hydroxybenzo[d]thiazol-2-yl)-4,5-dihydrothiazole-4-carboxylic acid], the “RLU% (RLU normalized to the one generated by 1 mM racemic luciferins under identical conditions)” value in series [1] was determined as 0.64%. Moreover, in series [2], the Luminescence as substrate result is given as “measurable luminescence values”.

Take `O=C(O)C1N=C(c2nc3cc(F)c(O)cc3s2)SC12CCCCC2` (stereo not drawn) [CS0392, 2-(5-fluoro-6-hydroxybenzo[d]thiazol-2-yl)-1-thia-3-azaspiro[4.5]dec-2-ene-4-carboxylic acid]: the “RLU% (RLU normalized to the one generated by 1 mM racemic luciferins under identical conditions)” value in series [1] worked out at 0.13%. Also, the Luminescence as substrate entry in series [2] is “measurable luminescence values”.

For the compound `O=C(O)C1N=C(c2nc3ccc(O)cc3s2)SC1(Cc1ccccc1)Cc1ccccc1` (stereo not drawn) [CS0396, 5,5-dibenzyl-2-(6-hydroxybenzo[d]thiazol-2-yl)-4,5-dihydrothiazole-4-carboxylic acid], the “RLU% (RLU normalized to the one generated by 1 mM racemic luciferins under identical conditions)” value in series [1] was found to be 1.0%. For the same compound, the Luminescence as substrate result in series [2] is listed as “measurable luminescence values”.

In the case of `O=C(O)C1N=C(c2nc3ccc(O)cc3s2)SC12CCCCCC2` (stereo not drawn) [CS0397, 2-(6-hydroxybenzo[d]thiazol-2-yl)-1-thia-3-azaspiro[4.6]undec-2-ene-4-carboxylic acid], the “RLU% (RLU normalized to the one generated by 1 mM racemic luciferins under identical conditions)” value in series [1] amounted to 0.13%.

Turning to `CC1CCC2(CC1)SC(c1nc3ccc(O)cc3s1)=NC2C(=O)O` (stereo not drawn) [CS0404, 2-(6-hydroxybenzo[d]thiazol-2-yl)-8-methyl-1-thia-3-azaspiro[4.5]dec-2-ene-4-carboxylic acid], in series [1], the “RLU% (RLU normalized to the one generated by 1 mM racemic luciferins under identical conditions)” value is reported as 0.31%.

On to `CN1CCC2(CC1)SC(c1nc3ccc(O)cc3s1)=NC2C(=O)O` (stereo not drawn) [CS0420, 2-(6-hydroxybenzo[d]thiazol-2-yl)-8-methyl-1-thia-3,8-diazaspiro[4.5]dec-2-ene-4-carboxylic acid], for which the “RLU% (RLU normalized to the one generated by 1 mM racemic luciferins under identical conditions)” value in series [1] is 0.20%.

On to `CCCC1(CCC)SC(c2nc3ccc(O)cc3s2)=NC1C(=O)O` (stereo not drawn) [CS0427, 2-(6-hydroxybenzo[d]thiazol-2-yl)-5,5-dipropyl-4,5-dihydrothiazole-4-carboxylic acid], for which the “RLU% (RLU normalized to the one generated by 1 mM racemic luciferins under identical conditions)” value in series [1] came out at 0.16%.

Turning to `O=C(O)C1N=C(c2nc3ccc(O)cc3s2)SC12CCOCC2` (stereo not drawn) [CS0439, 2-(6-hydroxybenzo[d]thiazol-2-yl)-8-oxa-1-thia-3-azaspiro[4.5]dec-2-ene-4-carboxylic acid], the “RLU% (RLU normalized to the one generated by 1 mM racemic luciferins under identical conditions)” value in series [1] worked out at 0.09%.

As to `O=C(O)c1csc(-c2nc3ccc(O)cc3s2)n1` [H-dehydroluciferin], the “Inhibition of luciferase activity” value in series [3] is given as “potent inhibitors”.

Consider `CC1(C)SC(c2nc3ccc(O)cc3s2)=NC1C(=O)O` (stereo not drawn) [III-a, 2-(6-hydroxybenzo[d]thiazol-2-yl)-5,5-dimethyl-4,5-dihydrothiazole-4-carboxylic acid], for which the “Thermal stability (decomposition in solution)” value (“Thermal stability” below) in series [4] is “virtually no decomposition; also recorded: more thermally stable than the unsubstituted luciferin”. In series [5], the “Light production via luciferase mediated processes” value is “incapable of producing light”.

In the case of `CC1(C)SC(c2nc3ccc(N)cc3s2)=NC1C(=O)O` (stereo not drawn) [III-b, 2-(6-aminobenzo[d]thiazol-2-yl)-5,5-dimethyl-4,5-dihydrothiazole-4-carboxylic acid], in series [4], the “Thermal stability” value is “virtually no decomposition; also recorded: more thermally stable than the unsubstituted luciferin”. For the same compound, the Light production entry in series [6] was “produce light”.

Regarding `Nc1ccc2nc(-c3nc(C(=O)O)cs3)sc2c1` [NH2-dehydroluciferin], the “Inhibition of luciferase activity” value in series [3] is listed as “potent inhibitors”.

As for `O=C(O)[C@H]1CSC(c2nc3ccc(O)cc3s2)=N1` [unsubstituted luciferin], the “Thermal stability” value in series [4] was “significant decomposition”. In series [4] (with or without ULTRA-GLO luciferase), the Major degradation product result is “dehydroluciferin”.
